For orientation: pKd means the Kd on a negative log10 scale, so that one unit is a factor of ten.

pKd: −log10 of the molar value. Starred links: 1 amine or outer side, 2 acyl side, 3 side chain; linkers in the order of their positions; H or OH if unused. Positions of bridges follow the written chain, without caps; N, C: chain ends. Residues, ends and D or L forms follow the SMILES beside them. CH2COCH2 = O=C(C[*:1])C[*:2]

In one assay the target is IgG. As to conditions: Patent Literature 2; read-out: Kd (affinity with IgG); cited from earlier work.
The test system of the next assay is human serum-derived IgG. In words: Dynamic binding capacity (DBC) measurement and alkali resistance evaluation of peptide-immobilized column. As to conditions: initial value; 1 mg peptide on 1-mL column, 1 mL/min. The method, then:
Five mL of 1 mM hydrochloric acid was sent to an NHS-activated prepacked column having a volume of 1 mL, and an isopropanol solution in the column was removed. Next, a 10.0 mg/mL peptide solution (dissolved in 100 μL of DMSO) was diluted with a coupling solution (20 mM carbonate buffer, 50 mM sodium chloride, pH 8.3) by 10-fold, 1 mL of the dilution liquid was sent, and immobilization was performed at room temperature for 4 hours. Thereafter, unreacted NHS was blocked by 5 mL of 1 M Tris (pH 8.0) at room temperature for 1 hour. Thereafter, washing with 5 mL of an aqueous 0.1 N NaOH solution was made. Finally, 10 mL of a PBS solution (20 mM phosphate buffer, 150 mM sodium chloride, pH 7.4) was sent, and used in chromatography evaluation.
A column where the amount of immobilization of a peptide was 1 mg was produced by the same method as described above. The column produced was equilibrated with PBS, and 1 mg/mL human serum-derived IgG (manufactured by Sigma-Aldrich Co. LLC) dissolved in PBS was sent at a flow rate of 1 mL/min (retention time 1 min). DBC was indicated as one determined from the amount of a protein added at the time of point where 10% of the absorbance at 280 nm of the sample added was leaked.
Next, 5 mL of an aqueous 0.1 N sodium hydroxide solution was sent to the 1-mL column where 1 mg of the peptide was immobilized. Thereafter, washing with PBS was performed. This cycle was repeated 30 times for the 1,1-dichloroacetone-crosslinked cyclic peptide, and was repeated 10 times for the 1,1-dichloropinacolin-crosslinked cyclic peptide. DBC measurement was performed at a flow rate of 1 mL/min at the 1st to 5th and 10th times of the cycles, and further performed at the 20th and 30th times of the cycles with respect to the 1,1-dichloroacetone-crosslinked cyclic peptide, and thus alkali resistance was evaluated. The variation in DBC was determined based on the measurement results under the assumption that DBC immediately after column production was 100% according to Table 2.
Five mL of a 0.1 M sodium hydroxide solution was sent to the produced 1-mL column where the amount of immobilization of a peptide was 1 mg, and thereafter washing with 5 mL of PBS was performed. These operations were defined as one cycle and treatment of washing with aqueous NaOH solution/washing with PBS was performed 1 to 30 times, and thereafter DBC measurement was performed at a flow rate of 1 mL/min at the intended number of times (1, 2, 3, 4, 5, 10, 20, 30 times).

In a further assay the target is human IgG1 (Homo sapiens, UniProt P01857). The assay is described as follows: SPR (BIAcore T200) measurement of binding affinity of crosslinked cyclic peptide to immobilized IgG. The method, then: The affinity analysis was performed by the following method. First, a CM5 sensor chip was installed on BIAcoreT200 (GE healthcare), and 0.4 M 1-ethyl-3-(3-dimethylaminopropyl)carbodiimide (EDC) and a 0.1 M sulfo-N-hydroxysuccinimide (sulfo-NHS) solution mixed in equivalent amounts were injected to the sensor chip at a flow rate of […], to thereby activate the sensor chip. Thereafter, IgG was immobilized onto the sensor chip under a condition of a pH of 5.5 (10 mM Na acetate). An HBS-EP buffer (10 mM HEPES, 150 mM NaCl, 0.005% Tween 20, 3 mM EDTA, pH 7.4) was used in measurement, and 15.625, 31.2, 62.5, 125, 250, and 500 nM of peptides were each injected at a flow rate of […] for 180 seconds, to thereby monitor binding reaction. When dissociation reaction was measured, only the buffer was injected for 600 seconds. The interaction parameter was analyzed with BIAevaluation T100 software.
Sequence of human IgG1 (P01857 1-328 limits assumed): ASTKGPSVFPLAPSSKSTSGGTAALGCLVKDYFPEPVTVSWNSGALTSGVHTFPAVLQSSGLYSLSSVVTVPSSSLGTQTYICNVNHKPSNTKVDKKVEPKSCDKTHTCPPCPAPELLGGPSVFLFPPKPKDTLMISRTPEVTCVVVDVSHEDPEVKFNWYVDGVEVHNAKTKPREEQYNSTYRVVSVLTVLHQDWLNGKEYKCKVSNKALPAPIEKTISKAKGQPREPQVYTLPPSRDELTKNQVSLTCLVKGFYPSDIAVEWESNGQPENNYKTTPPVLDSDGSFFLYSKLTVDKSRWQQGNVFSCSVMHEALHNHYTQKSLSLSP
IgG-binding peptide derivatives compared and evaluated are illustrated in FIG. 1.
For orientation: SPR reads the build-up and loss of mass on a sensor chip optically.

As for `CC(C)C[C@@H]1NC(=O)[C@H](CCC(=O)O)NC(=O)CNC(=O)[C@H](CCCNC(=N)N)NC(=O)[C@H](Cc2c[nH]cn2)NC(=O)[C@H](Cc2ccc(O)cc2)NC(=O)[C@H](C)NC(=O)[C@@H](NC(=O)[C@H](CC(=O)O)NC(=O)[C@@H]2CCCN2C(=O)CNC(=O)[C@H](CO)NC(=O)CNC(=O)CNC(=O)[C@H](CO)NC(=O)CN)CSCC(=O)CSC[C@@H](C(=O)N[C@H](C(=O)N[C@@H](Cc2ccccc2)C(=O)N[C@@H](Cc2c[nH]cn2)C(=O)O)[C@@H](C)O)NC(=O)[C@H](Cc2c[nH]c3ccccc23)NC(=O)[C@H](C(C)C)NC1=O` [IgG-BP-LongGS 1,3-dichloroacetone] (H-GSGGSGPDCAYHRGELVWCTFH-OH; linker 9-19 via CH2COCH2; N-terminus and C-terminus assumed), the pKd on IgG was 5.31. Also, in the assay on human serum-derived IgG, the “initial value of DBC of peptide column” value is 2.3 mg/mL-column. At human IgG1 (Kd relative to original disulfide IgG-binding peptide), the “reduction of affinity as compared with the original peptide” value is given as “about 500 fold”. On human IgG1 (SPR, IgG immobilized on CM5 chip, HBS-EP pH 7.4), this compound showed a kd of 0.005. Besides, the ka on human IgG1 (SPR, IgG immobilized on CM5 chip, HBS-EP pH 7.4, in M-1 s-1 (unit assumed)) was 1.00E+03.
